The values that follow come from patent US7981922B2, “Angiotensin I-converting enzyme (ACE) inhibitors” (University of Cape Town, priority 2005, dated 2011).

Structures are written as SMILES. Some results are limits rather than exact numbers.

For one test, the system named is ACE C-domain. The note with it: C-domain versus N-domain of ACE; cited from earlier work.
For a further test, the target named is tACEdelta36NJ (Homo sapiens, UniProt P12821). In words: ACE inhibitory activity, fluorometric determination of His-Leu, tACE. In kind it is biochemical. The note with it: for C domain-selectivity: C domain (tACE) versus N domain; for Ki: substrate Z-Phe-His-Leu, enzyme + inhibitor 3 hours at ambient temperature, read-out: Ki (tACE) ZPHL. The protocol: (§1) The ACE inhibitory activity (as tabulated in Table 1) was measured by the fluorometric determination of pthaldialdehyde-derivatised histidylleucine, a product of the enzyme reaction according to the method of Almquist et al.,^12 with some modifications. For tACEdelta36NJ and N-domain inhibition using Z-Phe-His-Leu as substrate: —10 μL of 0.05 mg/mL enzyme+120 μL inhibitor at ambient temperature for 3 hours. Inhibitor concentrations ranged from 2.0 μM to 500 μM. A 3.0 μL aliquot of this was assayed for enzyme activity using 30 μL of 1.0 mM […]. This was incubated (in triplicate) for 30 mins at 37° C. and stopped with 180 μL solution of 0.28N NaOH. To this alkalized mixture 12 μL of o-pthaldialdehyde (150 mM) was added and the mixture incubated for another 10 mins at room temperature. Reactions were stopped by adding 26 μL solution of 3N HCl. Fluorescence was measured at Ex=360 nm; Em=486 nm, 5×5 slit width along with a His-Leu standard calibration curve fluorometer: Varian Cary Eclipse plate reader.
tACEdelta36NJ, sequence (P12821 642-1230 limits assumed): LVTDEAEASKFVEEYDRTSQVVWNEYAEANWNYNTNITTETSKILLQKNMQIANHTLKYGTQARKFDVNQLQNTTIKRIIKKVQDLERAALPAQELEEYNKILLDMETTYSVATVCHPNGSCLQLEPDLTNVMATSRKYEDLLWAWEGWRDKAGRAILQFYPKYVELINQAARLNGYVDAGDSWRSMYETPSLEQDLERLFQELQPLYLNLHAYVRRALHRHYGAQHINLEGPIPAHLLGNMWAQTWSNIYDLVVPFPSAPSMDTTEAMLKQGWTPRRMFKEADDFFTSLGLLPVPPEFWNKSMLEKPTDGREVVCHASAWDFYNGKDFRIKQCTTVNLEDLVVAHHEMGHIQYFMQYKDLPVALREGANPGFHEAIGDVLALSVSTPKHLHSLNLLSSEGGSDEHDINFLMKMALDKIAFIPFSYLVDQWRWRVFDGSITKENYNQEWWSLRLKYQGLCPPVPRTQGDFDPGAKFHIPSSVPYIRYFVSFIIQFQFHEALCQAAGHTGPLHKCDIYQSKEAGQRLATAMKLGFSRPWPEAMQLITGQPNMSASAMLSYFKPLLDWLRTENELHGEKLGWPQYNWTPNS
(§2) All assays included enzyme incubated with buffer in the absence of inhibitor (i.e. 0 μM inhibitor concentration).

In another test the target is N-domain of ACE (Homo sapiens, UniProt P12821). In words: ACE inhibitory activity, fluorometric determination of His-Leu, N-domain. The format is biochemical. Particulars: substrate Z-Phe-His-Leu; no inhibition up to 500 μM; read-out: Ki (N-dom) ZPHL. How it is done:
as §1, §2

N-domain of ACE, sequence (P12821 40-624 limits assumed): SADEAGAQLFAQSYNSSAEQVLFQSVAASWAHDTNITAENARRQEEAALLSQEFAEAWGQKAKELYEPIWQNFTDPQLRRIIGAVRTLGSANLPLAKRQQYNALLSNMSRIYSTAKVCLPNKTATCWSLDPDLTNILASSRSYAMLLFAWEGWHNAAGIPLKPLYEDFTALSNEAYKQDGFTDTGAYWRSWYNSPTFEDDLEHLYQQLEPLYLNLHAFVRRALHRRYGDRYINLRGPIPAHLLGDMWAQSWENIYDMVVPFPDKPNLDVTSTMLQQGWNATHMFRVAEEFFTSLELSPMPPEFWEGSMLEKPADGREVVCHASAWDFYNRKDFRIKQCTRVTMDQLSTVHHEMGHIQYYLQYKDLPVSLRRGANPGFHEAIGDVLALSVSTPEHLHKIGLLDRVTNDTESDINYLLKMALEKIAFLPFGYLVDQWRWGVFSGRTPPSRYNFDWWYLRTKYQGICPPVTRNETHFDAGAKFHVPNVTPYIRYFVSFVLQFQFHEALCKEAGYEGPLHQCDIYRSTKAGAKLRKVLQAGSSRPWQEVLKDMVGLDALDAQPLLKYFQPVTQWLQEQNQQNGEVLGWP

Take `O=C(N[C@@H](Cc1ccccc1)P(=O)(O)C1CCCC1C(=O)N[C@@H](Cc1c[nH]c2ccccc12)C(=O)O)OCc1ccccc1` (stereo partly shown) [RXP A380]: the C-domain selective in the test with ACE C-domain was ~3000 fold.

The Ki is the equilibrium dissociation constant of an inhibitor or competing ligand from its target. Take `NCCCC[C@H](N[C@@H](CCc1ccccc1)C(=O)O)C(=O)N[C@@H](Cc1c[nH]c2ccccc12)C(=O)O` [Compound 6]: at tACEdelta36NJ, the C domain-selectivity is reported as > 19 fold and the Ki was 26.3 µM. Besides, at N-domain of ACE, the Ki was > 500 µM.

As for `NCCCC[C@H](N[C@H](CCc1ccccc1)C(=O)O)C(=O)N[C@@H](Cc1c[nH]c2ccccc12)C(=O)O` [Compound 6a], the C domain-selectivity at tACEdelta36NJ was > 72 fold. The Ki was 7 µM at tACEdelta36NJ and > 500 µM on N-domain of ACE.
